The structures appear in SMILES notation. Converted amounts (≈) assume the structure as drawn.

Data on two compounds can be found in publication PMC12856912, “Structure-Guided Semisynthesis of Blasticidin S–Amicetin Chimeras as Selective Ribosome Inhibitors” (Journal of the American Chemical Society, 2026).

Data set [1] deals with Vancomycin resistant E. faecalis NR-31972 (VRE). Nature of the data set: Antibacterial MIC assay, serial dilution. In kind it is cell-based, Enterococcus faecalis. The conditions noted are these: for Selectivity index (CC50/MIC) VRE NR-31972: CC50 Vero cells / MIC; for MIC: Enterococcus faecalis, VRE, 24 h, read-out: MIC Vancomycin resistant E. faecalis NR-31972 (VRE). In outline: (§1)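 Broth microdilution in cation-adjusted Mueller-Hinton broth with an inoculum at OD600 0.004 and final compound levels of 128–1 μg/mL. Plates ran 16–18 h at 37 °C, or 24 h for VRE. OD600 was normalized to controls, and MIC = lowest concentration inhibiting >90% growth; two biological replicates were run in duplicate.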

Data set [2] deals with Acinetobacter baumannii ATCC 17978. Kind of data set: Antibacterial MIC assay, serial dilution. Format: cell-based. As to conditions: ATCC17978, range from biological replicates. In outline:
as §1

Data set [3] has as its system Vancomycin resistant Enterococcus faecium NR-31909 (VRE). Kind of data set: Antibacterial MIC assay, serial dilution. Format: cell-based. The conditions noted are these: for Selectivity index (CC50/MIC) VRE NR-31909: CC50 Vero cells / MIC; for MIC: Enterococcus faecium, VRE, 24 h, read-out: MIC Vancomycin resistant Enterococcus faecium NR-31909 (VRE). In outline:
as §1

Data set [4] concerns Enterococcus faecalis ATCC 29212. Kind of data set: Antibacterial MIC assay, serial dilution. Format: cell-based. The conditions noted are these: for Selectivity index (CC50/MIC) E. faecalis 29212: CC50 Vero cells / MIC; for MIC: Enterococcus faecalis, ATCC 29112 / ATCC 29212, 24 h, read-out: MIC E. faecalis ATCC 29112.
The subject of data set [5] is Klebsiella pneumoniae ATCC 29665. Nature of the data set: Antibacterial MIC assay, serial dilution. Format: cell-based. The conditions noted are these: for MIC: Klebsiella pneumoniae, ATCC29665, range from biological replicates, read-out: MIC K. pneumoniae ATCC-29665. In outline:
as §1

Another data set deals with Pseudomonas aeruginosa. Nature of the data set: Antibacterial MIC assay, serial dilution. Format: cell-based. As to conditions: for MIC: Pseudomonas aeruginosa, range from biological replicates, read-out: MIC P. aeruginosa. In outline:
as §1

A short description of data set [6]: Cytotoxicity assay (MTS/PMS). As to conditions: monkey, Vero cells (monkey kidney epithelial cells); 24 h treatment, MTS/PMS, average of three biological replicates; read-out: CC50 against Vero cells. Format: cell-based. In outline:
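Vero cells were allowed to adhere for 24 h in DMEM with 10% FBS at 37 °C, then exposed to serial compound dilutions for 24 h. Viability was measured by MTS/PMS (4 h, absorbance at 490 nm) and normalized to vehicle. CC50 is the concentration giving 50% viability, averaged over three biological replicates.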

In the case of `CNc1ccc(C(=O)Nc2ccn([C@H]3C=C[C@H](NC(=O)C[C@@H](N)CCN(C)C(=N)N)[C@@H](C(=O)NCCc4ccccc4)O3)c(=O)n2)cc1` [Blastimidine P3], the “Selectivity index (CC50/MIC) VRE NR-31972” value in data set [1] is reported as over 16. Moreover, the MIC in data set [1] was 16 µg/mL (≈ 24.3 µM); in data set [2], over 128 µg/mL; in data set [3], 128 µg/mL (≈ 194 µM); in data set [4], 8 to 16 µg/mL (≈ 12.1 to 24.3 µM); in data set [5] it was over 128 µg/mL; in the data set on Pseudomonas aeruginosa, 64 to 128 µg/mL (≈ 97.2 to 194 µM). Also, the “Selectivity index (CC50/MIC) VRE NR-31909” value in data set [3] is reported as over 2.0. Also, in data set [4], the “Selectivity index (CC50/MIC) E. faecalis 29212” value is over 24. The “Selectivity index (CC50/MIC) P. aeruginosa” value in the data set with Pseudomonas aeruginosa (CC50 Vero cells / MIC) was over 3.0. For the same compound, the CC50 at 24 h in data set [6] was over 256 µg/mL.
As to `CN(CC[C@H](N)CC(=O)N[C@H]1C=C[C@H](n2ccc(NC(=O)c3ccc(NC(=O)[C@@](C)(N)CO)cc3)nc2=O)O[C@@H]1C(=O)NCCc1ccccc1)C(=N)N` [Blastimidine P5], the “Selectivity index (CC50/MIC) VRE NR-31972” value in data set [1] is over 8.0. The MIC in data set [1] is 32 µg/mL (≈ 42.9 µM); in data set [2] it was over 128 µg/mL; in data set [3], 16 to 32 µg/mL (≈ 21.5 to 42.9 µM); in data set [4] it was 32 µg/mL (≈ 42.9 µM); in data set [5], 64 to 128 µg/mL (≈ 85.8 to 172 µM); in the data set on Pseudomonas aeruginosa it was over 128 µg/mL. The “Selectivity index (CC50/MIC) VRE NR-31909” value in data set [3] is reported as over 11. Further, the “Selectivity index (CC50/MIC) E. faecalis 29212” value in data set [4] is reported as over 8.0. Further, the “Selectivity index (CC50/MIC) K. pneumoniae” value in data set [5] (CC50 Vero cells / MIC) is on record as over 3.0. Besides, the CC50 at 24 h in data set [6] is over 256 µg/mL.
